Measurements published in patent US20080020068A1, “Use Of Trisubstituted Benzopyranones” (Dr.Willmar Schwabe GmbH & Co. KG, priority 2004, published 2008).
Marks after values point to notes of the source that are not given here.

What was measured:
[1] = tested on: autoxidation of lipids (brain tissue of male mice); assay: Inhibition of autoxidation of lipids in mouse brain homogenate (chemiluminescence); format: biochemical, mice (NMRI); conditions: chemiluminescence over 60 minutes, vs solvent control
Source text: The autoxidation of lipids is associated with the emission of light. The determination of this extraordinarily weak chemiluminescence can be used for both quantifying peroxides and evaluating the efficacy of antioxidants. Brain tissue of male mice (NMRI; 20-30 g; Centre d'Elevage Janvier, Le Genest-Saint Isle, France) served as lipid-rich tissue in the present investigations. After its extraction the brain was washed with ice-cold phosphate-buffered physiological saline solution (PBS, pH 7.4) and freed from meninges and residual blood. The tissue samples were homogenised with 4 times their volume (v/w) made up of PBS and centrifugated at 1000×g and 4° C. for 10 minutes. The supernatants were immediately diluted with the same buffer to 3 times their volume and stored on ice. 250 μl of the diluted supernatant was transferred into a test tube and incubated for 10 minutes at 37° C. in a 6-channel luminometer (Multi-Biolumat LB 9505 C, Berthold, Bad Wildbad). After adding 25 μl of compound II in PBS added with 2.5% DMSO the incubation was continued for further 10 minutes. Then the intensity of the chemiluminescence (CL) was determined over a period of 60 minutes. The percentage of the inhibition of the autoxidation was calculated in comparison to the solvent control (PBS added with 2.5% DMSO) measured simultaneously. […]

[2] = tested on: IL-1β; assay: Synthesis of IL-1β in LPS-stimulated activated murine peritoneal macrophages; format: cell-based, mouse; conditions: for IL-1β: LPS 1 μg/ml, 24 h, average of three parallel tests; for IL-1β Effect (%): percentage change vs solvent control
Description: (§1) The influence of compound II on the synthesis of the proinflammatory cytokines IL-1β, TNF-α and IL-6 was determined by using activated murine peritoneal macrophages. In order to recover the activated macrophages 3×10^9 killed coryn bacterium parvum bacteria (Changzhou Yanshen Co. Ltd., Changzhou, China) in 0.5 ml PBS were injected intraperitoneally into male NMRI mice (Centre d'Elevage Janvier, Le Genest-Saint Isle, France). 6 days later the abdominal cavity was rinsed with 2.5 ml Hanks' balanced saline solution (HBSS) free of calcium and magnesium added with 10 U/ml heparine. The cells were resuspended at a concentration of 2×10^6 cells/ml in complete RPMI medium supplemented with 10% fetal bovine serum. […] cell suspension were filled into the wells of 96-well microtiter plates, respectively. After an incubation period of 2 h non-adherent cells were removed and the remaining cell lawn was washed twice with culture medium (37° C.). The macrophages were preincubated for 30 min. with compound II and then the synthesis of proinflammatory cytokines was induced by adding 1 μg/ml lipopolysaccharide of E. coli (serotype 0127:B8, Sigma, Deisenhofen). After incubating for 24 h (37° C., 5% CO2 in air) the cells were lysed by freezing and thawing for three times, the cell supernatants were recovered and frozen at −80° C. until analysed. The determination of the cytokine concentration in the cell supernatant was effected by means of commercial test kits (Duosets IL-1β, TNF-α and IL-6, R&D, Wiesbaden) in correspondence with the manufacturer's instructions. All investigations were conducted three times. The influence of compound II on the synthesis of the cytokines was evaluated in comparison to solvent controls (0.1% DMSO in complete RPMI medium) that were tested simultaneously.

[3] = tested on: TNF-α; assay: Synthesis of TNF-α in LPS-stimulated activated murine peritoneal macrophages; format: cell-based, mouse; conditions: for TNF-α: LPS 1 μg/ml, 24 h, average of three parallel tests; for TNF-α Effect (%): percentage change vs solvent control
Description: as §1

[4] = tested on: IL-6; assay: Synthesis of IL-6 in LPS-stimulated activated murine peritoneal macrophages; format: cell-based, mouse; conditions: for IL-6 pg/ml: LPS 1 μg/ml, 24 h, average of three parallel tests; for IL-6 Effect (%): percentage change vs solvent control
Description: as §1

[5] = target: T1, lipoxygenase (LO) (Homo sapiens, UniProt P09917); assay: Lipoxygenase activity in human whole blood (cystenyl-LT after A23187); format: cell-based; conditions: for Cystenyl-LT: A23187 50 μM; for Cystenyl-LT Effect (%): percentage change vs solvent control
T1 construct: endogenous in cells; host or cells: heparinised human whole blood (leukocytes), stimulated with A23187
T1 sequence (P09917 1-674): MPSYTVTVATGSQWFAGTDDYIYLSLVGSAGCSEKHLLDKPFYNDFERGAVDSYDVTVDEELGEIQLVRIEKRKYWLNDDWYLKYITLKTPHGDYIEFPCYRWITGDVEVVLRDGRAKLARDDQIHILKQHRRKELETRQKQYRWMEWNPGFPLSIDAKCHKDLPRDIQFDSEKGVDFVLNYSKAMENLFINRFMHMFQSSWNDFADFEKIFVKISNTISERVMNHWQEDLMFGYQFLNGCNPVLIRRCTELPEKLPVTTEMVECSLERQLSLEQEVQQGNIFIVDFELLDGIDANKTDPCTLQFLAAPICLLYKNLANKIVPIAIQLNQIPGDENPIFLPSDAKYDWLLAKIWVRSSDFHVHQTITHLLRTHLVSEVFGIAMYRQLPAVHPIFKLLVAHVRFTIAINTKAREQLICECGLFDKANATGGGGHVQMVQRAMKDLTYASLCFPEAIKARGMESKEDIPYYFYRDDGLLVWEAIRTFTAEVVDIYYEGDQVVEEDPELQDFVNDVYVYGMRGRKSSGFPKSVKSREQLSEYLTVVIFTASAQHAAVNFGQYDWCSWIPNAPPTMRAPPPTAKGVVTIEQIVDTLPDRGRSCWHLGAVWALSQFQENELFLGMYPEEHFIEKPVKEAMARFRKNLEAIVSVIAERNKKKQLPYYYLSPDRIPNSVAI
Description: (§2) Heparinised human whole blood was used for the investigations. 100 μl of whole blood were added into each well of 96-well microtiter plates. Separated plates were used for the determination of the cyclooxygenase-1 (COX1) and lipoxygenase (LO) activiy as well as for the induction of cyclooxygenase-2 (COX2).
(§3) Compound II was diluted in DME medium (DMEM) with 1% of antibiotics/antimycotics solution and 2 mM L-glutamine (Sigma, Deisenhofen) using DMSO (final concentration 0.1%) as solubility promoter. After adding 50 μl of compound II the tests were incubated for 60 min. at 37° C. Subsequently, 50 μl of calciumionophor A23187 (final concentration 50 μM) were added to stimulate the eicosanoid synthesis. After incubating for further 30 min. at 37° C. the microtiter plates were centrifuged for 5 min. at 4° C. with 1500 g. The plasma was pipetted off and frozen at −80° C. until analysed.
(§4) In the plasma samples TXB2, PGE2 and cystenyl leukotrienes (cystenyl-LT) were determined as parameters for the COX1, COX2 and LO activity. For the analysis commercial EIA test kits (TXB2 and PGE2: Caymann/IBL, Hamburg; cystenyl leukotrienes: CAST-2000, Milenia, Bad Nauheim) were used in accordance with the manufacturers' instructions. […] This spectrum of efficacy is to be regarded as extremely advantageous because in the therapeutic use of compound II the side effects typical of COX1 inhibitors, such as gastrointestinal complications (erosions, ulcerations) or hemorrhages due to the inhibition of the thrombocyte aggregation need therefore not to be taken into consideration.

[6] = target: T2, cyclooxygenase-1 (COX1) (Homo sapiens, UniProt P23219); assay: Cyclooxygenase-1 activity in human whole blood (TXB2 after A23187); format: cell-based; conditions: for TXB2: A23187 50 μM; for TXB2 Effect (%): percentage change vs solvent control
T2 construct: endogenous in cells; host or cells: heparinised human whole blood (platelets), stimulated with A23187
T2 sequence (P23219 24-599): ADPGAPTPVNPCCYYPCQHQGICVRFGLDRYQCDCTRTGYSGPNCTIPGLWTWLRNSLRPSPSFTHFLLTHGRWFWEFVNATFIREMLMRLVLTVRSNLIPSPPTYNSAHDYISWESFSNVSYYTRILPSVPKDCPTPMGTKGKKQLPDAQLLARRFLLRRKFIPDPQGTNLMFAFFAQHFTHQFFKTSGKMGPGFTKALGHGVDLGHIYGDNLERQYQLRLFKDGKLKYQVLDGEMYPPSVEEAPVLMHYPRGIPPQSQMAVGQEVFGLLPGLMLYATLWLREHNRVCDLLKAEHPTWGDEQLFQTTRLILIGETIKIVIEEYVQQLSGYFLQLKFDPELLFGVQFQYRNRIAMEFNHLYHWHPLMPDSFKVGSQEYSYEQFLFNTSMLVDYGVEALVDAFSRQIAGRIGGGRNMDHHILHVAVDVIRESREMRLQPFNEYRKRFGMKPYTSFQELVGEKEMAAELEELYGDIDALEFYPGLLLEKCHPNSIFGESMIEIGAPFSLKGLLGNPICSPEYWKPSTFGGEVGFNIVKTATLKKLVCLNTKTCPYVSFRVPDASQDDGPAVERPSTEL
Description: as §2, §3, §4

[7] = target: T3, cyclooxygenase-2 (COX2) (Homo sapiens, UniProt P35354); assay: Cyclooxygenase-2 activity in human whole blood (PGE2 after aspirin pretreatment and LPS); format: cell-based; conditions: for PGE2: aspirin pretreated, LPS 10 μg/ml, 18 h; for PGE2 Effect (%): percentage change vs solvent control
T3 construct: to induce the expression of COX2 25 μl of lipopolysaccharide of E. coli; endogenous in cells; host or cells: heparinised human whole blood, aspirin-pretreated, COX2 induced with LPS
T3 sequence (P35354 18-604): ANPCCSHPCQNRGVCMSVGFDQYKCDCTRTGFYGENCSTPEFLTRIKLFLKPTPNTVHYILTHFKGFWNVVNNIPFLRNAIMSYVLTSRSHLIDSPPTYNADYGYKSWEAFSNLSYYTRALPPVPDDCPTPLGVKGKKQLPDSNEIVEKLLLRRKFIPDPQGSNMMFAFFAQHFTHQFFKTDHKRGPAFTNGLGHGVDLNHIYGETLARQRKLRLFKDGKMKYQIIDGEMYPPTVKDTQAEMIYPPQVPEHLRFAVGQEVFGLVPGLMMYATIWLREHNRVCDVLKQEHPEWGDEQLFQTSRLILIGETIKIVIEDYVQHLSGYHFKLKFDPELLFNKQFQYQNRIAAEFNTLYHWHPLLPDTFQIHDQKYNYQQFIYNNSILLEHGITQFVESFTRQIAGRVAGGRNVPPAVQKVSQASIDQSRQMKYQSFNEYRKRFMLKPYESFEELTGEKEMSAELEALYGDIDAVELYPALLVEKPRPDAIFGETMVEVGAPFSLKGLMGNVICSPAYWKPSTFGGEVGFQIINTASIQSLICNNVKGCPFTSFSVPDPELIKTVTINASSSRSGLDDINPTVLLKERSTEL
Description: as §2
Then compound II and the solvent (DMEM with 0.1% DMSO), respectively, were added in a volume of 25 μl. Moreover, to induce the expression of COX2 25 μl of lipopolysaccharide of E. coli (serotype 0127:B8, final concentration 10 μg/ml) were added. After incubating for 18 h at 37° C. the plasma was recovered as described above and also stored at −80° C. until analysed.
as §4

[8] = 10 μg/ml (first line so printed, r17-18), human whole blood
[9] = 10 μg/ml (first line so printed, r17-18)
[10] = 10 μg/ml (second line so printed, r19-20), human whole blood
[11] = 10 μg/ml (second line so printed, r19-20)
[12] = 30 μg/ml, human whole blood, average of two parallel tests
[13] = 100 μg/ml, human whole blood, average of two parallel tests

What does the source list for `O=c1ccc2cc(O)c(O)c(O)c2o1` [Compound II, 6,7,8-Trihydroxy-2H-1-benzopyran-2-one]?
half-maximal inhibitory concentration, autoxidation of lipids [1]: 53 ng/mL; IL-1β ([2]; 10 μg/ml): 3789 pg/mL; IL-1β Effect (%) ([2]; 10 μg/ml): +7%; IL-1β ([2]; 30 μg/ml): 3356 pg/mL; IL-1β Effect (%) ([2]; 30 μg/ml): −6%; inhibition of the synthesis of IL-1β (in words) ([2]; 100 μg/ml): significant inhibition; IL-1β ([2]; 100 μg/ml): 430 pg/mL; IL-1β Effect (%) ([2]; 100 μg/ml): −88* %; TNF-α ([3]; 10 μg/ml): 10050 pg/mL; TNF-α Effect (%) ([3]; 10 μg/ml): +19%; TNF-α ([3]; 30 μg/ml): 10189 pg/mL; TNF-α Effect (%) ([3]; 30 μg/ml): +21%; inhibition of the synthesis of TNF-α (in words) ([3]; 100 μg/ml): significant inhibition; TNF-α ([3]; 100 μg/ml): 6251 pg/mL; TNF-α Effect (%) ([3]; 100 μg/ml): −26* %; IL-6 pg/ml ([4]; 10 μg/ml): 23078 pg/mL; IL-6 Effect (%) ([4]; 10 μg/ml): −27* %; IL-6 pg/ml ([4]; 30 μg/ml): 22519 pg/mL; IL-6 Effect (%) ([4]; 30 μg/ml): −28* %; inhibition of the synthesis of IL-6 (in words) ([4]; 100 μg/ml): significant inhibition; IL-6 pg/ml ([4]; 100 μg/ml): 976 pg/mL; IL-6 Effect (%) ([4]; 100 μg/ml): −97* %; Cystenyl-LT [5, 8]: 3557 pg/mL; Cystenyl-LT Effect (%) [5, 9]: −51%; Cystenyl-LT [5, 10]: 5193 pg/mL; Cystenyl-LT Effect (%) [5, 11]: −28%; Cystenyl-LT [5, 12]: 2089 pg/mL; Cystenyl-LT Effect (%) ([5]; 30 μg/ml): −71%; Cystenyl-LT [5, 13]: 661 pg/mL; Cystenyl-LT Effect (%) ([5]; 100 μg/ml): −91%; inhibition of the activity of LO (in words) ([5]; human whole blood): potent inhibition; TXB2 [6, 8]: 7825 pg/mL; TXB2 Effect (%) [6, 9]: −20%; TXB2 [6, 10]: 7278 pg/mL; TXB2 Effect (%) [6, 11]: −26%; TXB2 [6, 12]: 9993 pg/mL; TXB2 Effect (%) ([6]; 30 μg/ml): +2%; TXB2 [6, 13]: 9115 pg/mL; TXB2 Effect (%) ([6]; 100 μg/ml): −7%; effect on the activity of COX1 (in words) ([6]; human whole blood): hardly affected; PGE2 [7, 8]: 3679 pg/mL; PGE2 Effect (%) [7, 9]: −66%; PGE2 [7, 10]: 5499 pg/mL; PGE2 Effect (%) [7, 11]: −49%; PGE2 [7, 12]: 2626 pg/mL; PGE2 Effect (%) ([7]; 30 μg/ml): −76%; PGE2 [7, 13]: 2232 pg/mL; PGE2 Effect (%) ([7]; 100 μg/ml): −79%; inhibition of the activity of COX2 (in words) ([7]; human whole blood): potent inhibition

`Cc1c(C)c2c(c(C)c1O)CCC(C)(C(=O)O)O2` (centres unmarked) [Trolox, reference compound] was tested. Which “half-maximal inhibitory concentration, autoxidation of lipids” value [1] did it give?
The value was 1665 ng/mL.
